Measurements as given in patent publication US20250346585A1 (Alexion Pharmaceuticals, Inc., priority 2022, published 2025).

Target: Human complement C1s enzyme (Homo sapiens (Human), UniProt P09871)
Experiment: Human C1s enzyme assay
Type: biochemical
Conditions: Human C1s enzyme assay of Example 3; read-out: IC50 (Stars)
Description: Human complement C1s enzyme (purified from human serum, Complement Technology, Inc.) at 1.16 nM final concentration was incubated with test compound at various concentrations for 5 min at room temperature in 50 mM Tris, 1 M NaCl, pH 7.5. A synthetic substrate Z-L-Lys-SBzl and DTNB (Ellman's reagent) were added to final concentrations of 100 μM each. Absorbance at 405 nm (A405) was recorded at 30 second intervals for 30 min using a microplate spectrophotometer. IC50 values were calculated by nonlinear regression of complement C1s reaction rates as a function of test compound concentration.

Chain of Human complement C1s enzyme (P09871 438-688 limits assumed): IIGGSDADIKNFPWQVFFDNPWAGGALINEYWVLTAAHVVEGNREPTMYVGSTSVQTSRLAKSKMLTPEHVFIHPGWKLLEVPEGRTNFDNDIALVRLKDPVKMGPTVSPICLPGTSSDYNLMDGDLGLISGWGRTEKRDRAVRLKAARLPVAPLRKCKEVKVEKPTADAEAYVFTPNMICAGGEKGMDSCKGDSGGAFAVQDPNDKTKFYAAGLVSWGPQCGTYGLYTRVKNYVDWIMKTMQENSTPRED
Chain of Human complement C1s enzyme (P09871 16-437 partner limits assumed): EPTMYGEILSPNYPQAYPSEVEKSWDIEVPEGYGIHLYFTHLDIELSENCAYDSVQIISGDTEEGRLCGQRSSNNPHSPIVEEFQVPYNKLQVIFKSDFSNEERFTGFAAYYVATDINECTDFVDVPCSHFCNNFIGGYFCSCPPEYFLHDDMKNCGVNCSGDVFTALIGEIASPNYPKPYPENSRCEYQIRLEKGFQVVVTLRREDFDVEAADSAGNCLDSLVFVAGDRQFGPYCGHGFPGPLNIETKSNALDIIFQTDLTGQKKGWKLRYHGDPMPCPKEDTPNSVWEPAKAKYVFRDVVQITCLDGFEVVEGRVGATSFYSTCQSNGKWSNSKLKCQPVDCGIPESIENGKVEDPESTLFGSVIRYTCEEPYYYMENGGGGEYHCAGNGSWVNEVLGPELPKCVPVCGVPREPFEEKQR

SMILES	IC50 [nM]
CC(NC(=O)[C@@H]1C[C@@H](Oc2ccccc2)CN1C(=O)CNC(=O)c1ccc2c(c1)-c1ccccc1C2(F)F)c1cc(C(=N)N)cs1 (stereo in doubt) [Compound 51, (2S,4R)—N—((S)-1-(4-carbamimidoylthiophen-2-yl)ethyl)-1-((9,9-difluoro-9H-fluorene-3-carbonyl)glycyl)-4-phenoxypyrrolidine-2-carboxamide]	< 100
N=C(N)c1csc(CNC(=O)[C@@H]2CC3(CN2C(=O)CNC(=O)c2ccc(-c4ccc(F)cc4F)cc2)OCCO3)c1 [Compound 107, (S)—N-((4-carbamimidoylthiophen-2-yl)methyl)-7-((2′,4′-difluoro-[1,1′-biphenyl]-4-carbonyl)glycyl)-1,4-dioxa-7-azaspiro[4.4]nonane-8-carboxamide]	< 100
C[C@@H](NC(=O)[C@@H]1C[C@@H](S(C)(=O)=O)CN1C(=O)CNC(=O)c1ccc(Oc2ccc(F)cc2)cc1)c1cc(C(=N)N)cs1 [Compound 54, (2S,4R)—N—((R)-1-(4-carbamimidoylthiophen-2-yl)ethyl)-1-((4-(4-fluorophenoxy)benzoyl)glycyl)-4-(methylsulfonyl)pyrrolidine-2-carboxamide]	< 100
COC[C@@]1(F)C[C@@H](C(=O)N[C@H](C)c2cc(C(=N)N)cs2)N(C(=O)CNC(=O)c2ccc3c(c2)-c2ccccc2C3(C)C)C1 [Compound 139, (2S,4R)—N—((R)-1-(4-carbamimidoylthiophen-2-yl)ethyl)-1-((9,9-dimethyl-9H-fluorene-3-carbonyl)glycyl)-4-fluoro-4-(methoxymethyl) pyrrolidine-2-carboxamide]	< 100
C[C@H]1C[C@@H](C(=O)N[C@H](C)c2cc(C(=N)N)cs2)N(C(=O)CNC(=O)c2ccc(Oc3ccc(F)cc3)cc2)C1 [Compound 45, (2S,4S)—N—((R)-1-(4-carbamimidoylthiophen-2-yl)ethyl)-1-((4-(4-fluorophenoxy)benzoyl)glycyl)-4-methylpyrrolidine-2-carboxamide]	< 100
C[C@@H](NC(=O)[C@@H]1CC2(CN1C(=O)CNC(=O)c1ccc3c(c1)-c1ccccc1C3(F)F)OCCO2)c1cc(-c2c[nH]cn2)cs1 [Compound 96, (S)—N—((R)-1-(4-(1H-imidazol-4-yl)thiophen-2-yl)ethyl)-7-((9,9-difluoro-9H-fluorene-3-carbonyl)glycyl)-1,4-dioxa-7-azaspiro[4.4]nonane-8-carboxamide]	100 to 1000
Cc1ccccc1[C@H]1C[C@@H](C(=O)N[C@H](C)c2cc(C(=N)N)cs2)N(C(=O)CNC(=O)c2ccc3c(c2)-c2ccccc2C3(F)F)C1 [Compound 119, (2S,4R)—N—((R)-1-(4-carbamimidoylthiophen-2-yl)ethyl)-1-((9,9-difluoro-9H-fluorene-3-carbonyl)glycyl)-4-(o-tolyl)pyrrolidine-2-carboxamide]	< 100
C[C@@H](NC(=O)[C@@H]1C[C@@H](S(C)(=O)=O)CN1C(=O)CNC(=O)c1ccc2c(c1)-c1ccccc1C2(C)C)c1cc(C(=N)N)cs1 [Compound 178, (2S,4R)—N—((R)-1-(4-carbamimidoylthiophen-2-yl)ethyl)-1-((9,9-dimethyl-9H-fluorene-3-carbonyl)glycyl)-4-(methylsulfonyl)pyrrolidine-2-carboxamide]	< 100
C[C@@H](NC(=O)[C@@H]1CC2(CN1C(=O)CNC(=O)c1ccc(-c3ccc(F)cc3Cl)cc1)OCCO2)c1cc(C(=N)N)cs1 [Compound 176, (S)—N—((R)-1-(4-carbamimidoylthiophen-2-yl)ethyl)-7-((2′-chloro-4′-fluoro-[1,1′-biphenyl]-4-carbonyl)glycyl)-1,4-dioxa-7-azaspiro[4.4]nonane-8-carboxamide]	< 100

Same assay, conditions: Human complement C1s enzyme 1.16 nM, substrate Z-L-Lys-SBzl 100 μM, assay of Example 3; read-out: IC50 (Stars)

SMILES	IC50 [nM]
C[C@@H](NC(=O)[C@@H]1C[C@@H](S(C)(=O)=O)CN1C(=O)CNC(=O)c1ncc(-c2ccccc2)cc1F)c1cc(C(=N)N)cs1 [Compound 339, N-(2-((2S,4R)-2-(((R)-1-(4-carbamimidoylthiophen-2-yl)ethyl)carbamoyl)-4-(methylsulfonyl)pyrrolidin-1-yl)-2-oxoethyl)-3-fluoro-5-phenylpicolinamide]	< 100
CCCCCCOC(=O)/N=C(/N)c1csc([C@@H](C)NC(=O)[C@@H]2C[C@](F)(COC)CN2C(=O)CNC(=O)c2ccc3c(c2)-c2ccccc2C3(F)F)c1 [Compound 249, hexyl ((E)-amino(5-((R)-1-((2S,4R)-1-((9,9-difluoro-9H-fluorene-3-carbonyl)glycyl)-4-fluoro-4-(methoxymethyl)pyrrolidine-2-carboxamido)ethyl)thiophen-3-yl)methylene)carbamate]	< 100
C[C@@H](NC(=O)[C@@H]1C[C@@H](C(F)(F)F)CN1C(=O)CNC(=O)c1ccc(Oc2ccc(F)cc2)cc1)c1cc(C(=N)N)cs1 [Compound 307, (2S,4R)—N—((R)-1-(4-carbamimidoylthiophen-2-yl)ethyl)-1-((4-(4-fluorophenoxy)benzoyl)glycyl)-4-(trifluoromethyl)pyrrolidine-2-carboxamide]	< 100
C[C@@H](NC(=O)[C@@H]1C[C@](F)(CF)CN1C(=O)CNC(=O)c1ccc2cc3ccccc3cc2c1)c1cc(C(=N)N)cs1 [Compound 235, (2S,4R)-1-((anthracene-2-carbonyl)glycyl)-N—((R)-1-(4-carbamimidoylthiophen-2-yl)ethyl)-4-fluoro-4-(fluoromethyl)pyrrolidine-2-carboxamide]	< 100
NC(=O)CCNc1csc(CNC(=O)[C@@H]2CC3(CN2C(=O)CNC(=O)c2ccc(Oc4ccc(F)cc4)cc2)OCCO3)c1 [Compound 310, (S)-N-((4-((3-amino-3-oxopropyl)amino)thiophen-2-yl)methyl)-7-((4-(4-fluorophenoxy)benzoyl)glycyl)-1,4-dioxa-7-azaspiro[4.4]nonane-8-carboxamide]	> 1000
N=C(N)c1csc(CNC(=O)[C@@H]2CC3(CN2C(=O)CNC(=O)c2ccc(-c4ccc(F)c(C(=O)O)c4)cc2)OCCO3)c1 [Compound 212, (S)-4′-((2-(8-(((4-carbamimidoylthiophen-2-yl)methyl)carbamoyl)-1,4-dioxa-7-azaspiro[4.4]nonan-7-yl)-2-oxoethyl)carbamoyl)-4-fluoro-[1,1′-biphenyl]-3-carboxylic acid]	< 100

Same assay, conditions: Human complement C1s enzyme 1.16 nM, substrate Z-L-Lys-SBzl; assay of Example 3; read-out: IC50 (Stars)

SMILES	IC50 [nM]
N=C(N)c1csc([C@@H](CO)NC(=O)[C@@H]2C[C@](F)(CF)CN2C(=O)CNC(=O)c2ccc3c(c2)-c2ccccc2C3(F)F)c1 [Compound 398, (2S,4R)—N—((R)-1-(4-carbamimidoylthiophen-2-yl)-2-hydroxyethyl)-1-((9,9-difluoro-9H-fluorene-3-carbonyl)glycyl)-4-fluoro-4-(fluoromethyl)pyrrolidine-2-carboxamide]	< 100
C[C@@H](NC(=O)[C@@H]1C[C@]2(COCCCCN)C[C@@H]2N1C(=O)CNC(=O)c1ccc2c(c1)-c1ccccc1C2(F)F)c1cc(C(=N)N)cs1 [Compound 414, (1S,3S,5R)-5-((4-aminobutoxy)methyl)-N—((R)-1-(4-carbamimidoylthiophen-2-yl)ethyl)-2-((9,9-difluoro-9H-fluorene-3-carbonyl)glycyl)-2-azabicyclo[3.1.0]hexane-3-carboxamide]	< 100
C[C@@H](NC(=O)[C@@H]1C[C@@H](c2nccs2)CN1C(=O)CNC(=O)c1ccc(Oc2ccc(F)cc2)cc1)c1cc(C(=N)N)cs1 [Compound 412, (2S,4R)—N—((R)-1-(4-carbamimidoylthiophen-2-yl)ethyl)-1-((4-(4-fluorophenoxy)benzoyl)glycyl)-4-(thiazol-2-yl)pyrrolidine-2-carboxamide]	< 100
